Source: article PMC10509173, “Deep learning driven de novo drug design based on gastric proton pump structures” (Communications Biology, 2023)
“And” between values parts separate entries of the source, which are not always exact repeats. Identical values can stand only once.

Biological target: H+,K+-ATPase (Sus scrofa, UniProt P19156)
Assay: Dose-dependent inhibition of H+,K+-ATPase activity, membrane fractions
Settings: for H+,K+-ATPase activity, raw data of dose-dependent inhibition: single replicate values
[1] = [PCAB] -3.30103 (log, unit not given)
[2] = [PCAB] -3.52288 (log, unit not given)
[3] = [PCAB] -4 (log, unit not given)
[4] = [PCAB] -4.30103 (log, unit not given)
[5] = [PCAB] -4.52288 (log, unit not given)
[6] = [PCAB] -5 (log, unit not given)
[7] = [PCAB] -5.52288 (log, unit not given)
[8] = [PCAB] -6 (log, unit not given)
[9] = [PCAB] -6.30103 (log, unit not given)
[10] = [PCAB] -7 (log, unit not given)
[11] = [PCAB] -8 (log, unit not given)
[12] = [PCAB] -11 (log, unit not given; possibly placeholder for no compound)

Chain of H+,K+-ATPase (P19156 2-1034 limits assumed): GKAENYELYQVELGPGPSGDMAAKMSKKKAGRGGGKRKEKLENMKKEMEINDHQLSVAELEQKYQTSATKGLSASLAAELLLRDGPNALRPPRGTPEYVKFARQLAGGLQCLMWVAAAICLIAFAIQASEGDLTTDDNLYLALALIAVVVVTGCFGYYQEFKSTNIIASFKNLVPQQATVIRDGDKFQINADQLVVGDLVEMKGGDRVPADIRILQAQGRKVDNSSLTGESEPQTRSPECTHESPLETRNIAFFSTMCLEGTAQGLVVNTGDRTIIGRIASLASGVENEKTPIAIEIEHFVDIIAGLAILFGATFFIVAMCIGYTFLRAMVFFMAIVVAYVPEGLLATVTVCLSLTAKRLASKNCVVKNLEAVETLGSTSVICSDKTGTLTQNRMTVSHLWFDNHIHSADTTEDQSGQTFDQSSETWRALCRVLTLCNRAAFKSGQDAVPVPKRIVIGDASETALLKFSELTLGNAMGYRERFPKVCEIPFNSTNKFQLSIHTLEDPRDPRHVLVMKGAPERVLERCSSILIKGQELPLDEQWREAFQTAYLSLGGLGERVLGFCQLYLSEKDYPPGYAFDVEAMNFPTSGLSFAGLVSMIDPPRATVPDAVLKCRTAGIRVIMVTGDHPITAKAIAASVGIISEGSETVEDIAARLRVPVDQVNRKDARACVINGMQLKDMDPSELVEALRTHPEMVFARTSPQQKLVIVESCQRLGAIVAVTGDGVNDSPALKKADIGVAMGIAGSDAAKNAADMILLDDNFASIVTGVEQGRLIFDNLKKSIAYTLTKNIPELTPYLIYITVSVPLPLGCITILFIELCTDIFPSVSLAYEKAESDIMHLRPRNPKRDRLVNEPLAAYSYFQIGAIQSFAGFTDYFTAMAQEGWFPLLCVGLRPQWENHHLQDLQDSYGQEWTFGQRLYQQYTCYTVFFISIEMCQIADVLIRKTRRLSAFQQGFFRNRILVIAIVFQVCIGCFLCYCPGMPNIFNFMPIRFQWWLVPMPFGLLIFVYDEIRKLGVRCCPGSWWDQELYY
Chain of H+,K+-ATPase (P18434 whole entry partner): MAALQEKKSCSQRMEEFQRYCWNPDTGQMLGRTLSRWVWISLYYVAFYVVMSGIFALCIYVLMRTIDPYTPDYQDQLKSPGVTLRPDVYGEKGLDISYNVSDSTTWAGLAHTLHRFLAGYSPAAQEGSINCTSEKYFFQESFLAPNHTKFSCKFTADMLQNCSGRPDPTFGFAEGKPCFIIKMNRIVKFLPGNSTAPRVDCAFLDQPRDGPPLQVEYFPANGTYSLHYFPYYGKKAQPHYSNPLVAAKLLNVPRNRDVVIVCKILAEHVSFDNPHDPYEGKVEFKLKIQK

SMILES	IC50 [µM]	H+,K+-ATPase activity, raw data of dose-dependent inhibition [1]	H+,K+-ATPase activity, raw data of dose-dependent inhibition [2]	H+,K+-ATPase activity, raw data of dose-dependent inhibition [3]	H+,K+-ATPase activity, raw data of dose-dependent inhibition [4]	H+,K+-ATPase activity, raw data of dose-dependent inhibition [5]	H+,K+-ATPase activity, raw data of dose-dependent inhibition [6]	H+,K+-ATPase activity, raw data of dose-dependent inhibition [7]	H+,K+-ATPase activity, raw data of dose-dependent inhibition [8]	H+,K+-ATPase activity, raw data of dose-dependent inhibition [9]	H+,K+-ATPase activity, raw data of dose-dependent inhibition [10]	H+,K+-ATPase activity, raw data of dose-dependent inhibition [11]	H+,K+-ATPase activity, raw data of dose-dependent inhibition [12]
OCc1ccc(OCc2ccccc2OCc2ccccc2)cc1 [DQ-10]	292 ± 67	43.38 and 44.41 and 45.92 and 45.13 and 45.42 and 45.93	45.74 and 44.58 and 47.45 and 47.39 and 47.18 and 50.77	56.05 and 53.52 and 55.98 and 54.18 and 54.88 and 57.9	76.31 and 75.72 and 105.39 and 105.73 and 101.62 and 104.74	93.17 and 93.5 and 97.58 and 97.31 and 105.67 and 98.13	105.05 and 103.17 and 107.45 and 104.86 and 105.64 and 102	97.45 and 97.17 and 101.99 and 103.63 and 102.59 and 100.01	100.27 and 101.99 and 106.56 and 102.96 and 101.68 and 100.85	96.05 and 88 and 94.05 and 95.4 and 97.95 and 97.13	93.18 and 94.04 and 98.08 and 97.4 and 96.62 and 95.63	97.94 and 95.96 and 97.5 and 99.04 and 99.69 and 102.43	97.84 and 98.7 and 100.06 and 101.42 and 100.78 and 96
CNCc1ccc(OCc2cc(Cl)ccc2OCc2ccc(Cl)cc2)c(Cl)c1 [DQ-07]	3.2 ± 0.2	0.27 and 0.6 and 3.27 and 8.56 and 2.84 and 6.16	-0.35 and -0.17 and 2.58 and 2.95 and 2.71 and 3.29	-1.84 and -1.63 and 1.31 and 1.18 and 1.05 and 1.62	-1.84 and -1.6 and 2.69 and 2.52 and 2.83 and 2.8	-1.24 and -1.47 and 3.31 and 3.19 and 3.75 and 3.57	4.55 and 4.67 and 12.66 and 12.06 and 13.24 and 12.08	45.69 and 44.11 and 51.61 and 59.03 and 63.14 and 61.87	84.95 (2×) and 82.82 and 90.61 and 90.08 and 95.69	90.87 and 90.7 and 95.03 and 96.7 and 92.33 and 94.31	96.69 and 96.52 and 102.14 and 98.38 and 97.9 and 99.91	96.57 and 99.63 and 102.72 and 99.81 and 97.87 and 101.66	100.45 and 97.72 and 103.9 and 100.73 and 98.44 and 100.87
CNCC#CCn1ccc2cccc(C#Cc3ccc(C)cc3)c21 [DQ-15]	49.5 ± 4.9	-1.23 and -0.26 and -1.44 and 5.07 and -1.8 and 2.8	9.09 and 3.72 and 0.29 and -0.76 and -0.99 and -0.84	11.93 and 13.25 and 13.98 and 12.44 and 11.99	53.33 and 67.11 and 32 and 29.38 and 36.06 and 36.79	62.91 and 87.02 and 102.29 and 102.11 and 98.15 and 100.59	104.78 and 109.76 and 109.66 and 114.82 and 111.02 and 110.28	106.28 and 113.44 and 111.13 and 112.65 and 113.7 and 115.05	99.17 and 105.14 and 103.4 and 101.49 and 105.23 and 103.02	96.59 and 101.3 and 102.53 and 104.37 and 103.52 and 105.02	93.78 and 100.85 and 99.97 and 100.06 and 104.3 and 100.32	98.75 and 101.8 and 99.85 and 100.74 and 97.88 and 98.55	102.57 and 105.77 and 99.66 and 98.21 and 98.11 and 102.51
CNCC#CCn1ccc2cccc(C#Cc3cccc(Cl)c3)c21 [DQ-16]	89.4 ± 13.5	24.42 and 42.17	44.41 and 66.92	87.71 and 67.55	103.26 and 71.7 and 101.95 and 107.11 and 107.49 and 103.62	107.4 and 104.96 and 100.44 and 100.8 and 99.65 and 99.6	105.07 and 103.28 and 102.18 and 95.06 and 104.24 and 100.65	112.46 and 113.5 and 115.83 and 115.26 and 112.62 and 114.01	106.69 and 106.05 and 103.52 and 103.99 and 105.16 and 107.1	101.16 and 99.6 and 102.96 and 104.58 and 100.87 and 100.34	95.95 and 99.26 and 100.97 and 100.31 and 101.14 and 100.94	95.83 and 94.95 and 90.34 and 101.71 and 99.53 and 101.3	95.82 and 93.84 and 98.4 and 100.56 and 99.28 and 103.27
CNCc1ccc(OCc2ccccc2OCc2ccc(Cl)cc2)cc1 [DQ-21]	0.28 ± 0.02	-1.36 and -1 and -1.49 and 3.72 and -1.45 and 1.58	0.39 and 0.54 and 0.08 and 0.18 and 0.41 and 0.55	3.33 and 3.13 and 3.68 and 3.03 and 3.2 and 3.37	4.45 and 4.77 and 4.44 and 4.84 and 4.43 and 4.67	6.47 and 6.44 and 6.31 and 6.43 and 6.29 and 6.56	7.76 and 7.75 and 7.99 (2×) and 7.89 and 7.77	11.96 and 12.26 and 11.83 and 11.89 and 11.45 and 12.14	23.55 and 22.68 and 22.58 and 21.83 and 22.75 and 23.52	36.33 and 33.31 and 34.67 and 35.15 and 34.9 and 34.74	76.22 and 75.51 and 71.53 and 74.65 and 69.37	101.03 and 99.43 and 98.88 and 100.2 and 98.66 and 98.58	102.52 and 101.98 and 100.28 and 101.48 and 100.07 and 102.84
CNCC#CCn1ccc2cccc(C#Cc3ccccc3)c21 [DQ-14]	> 120	27.73 and 26.74 and 25.35 and 26.06	28.44 and 23.96 and 24.12 and 24.35	60.7 and 61.39 and 60.36 and 56.79	84.92 and 80.56 and 95.68 and 93.2 and 92.03 and 93.46	87.04 and 84.8 and 98.89 and 98.98 and 99.17 and 99.96	106.23 and 102.41 and 111.55 and 99.92 and 109.43 and 110.94	106.37 and 107.48 and 116.43 and 116.24 and 113.84 and 116.41	99.88 and 98.19 and 102.47 and 100.9 and 103.05 and 104.28	101.13 and 91.4 and 101.1 and 101.3	93.06 and 99.72 and 100.85 and 100.56 and 98.57	95.47 and 97.96 and 97.95 and 99.07 and 96.42 and 98.64	103.16 and 99.44 and 101.23 and 99.08 and 99.88 and 99.77
CNCC#CCOCc1cc(Cl)ccc1-c1ccc(Cl)c(F)c1 [DQ-04]	33.9 ± 3.8	0.25 and -0.25 and -0.38 and 0.38 and -0.3 and -3.39	1.96 and 3.36 and 3.54 and 3.3 and 3.08 and 0.78	36.71 and 36.26 and 38.13 and 35.18 and 35.01 and 32.77	44 and 42.16 and 21.74 and 21.63 and 20.87 and 17.27	54.64 and 55.71 and 47.64 and 52.61 and 61.59 and 63.39	84.91 and 81.14 and 76.84 and 80.91 and 85.5 and 81.75	98.14 and 98.72 and 86.17 and 97.35 and 92.86 and 93.01	100.43 and 99.64 (2×) and 95.5 and 94.06 and 98.22	97.37 and 99.94 and 104.98 and 87.87 and 104.85 and 101.28	98.23 and 101.36 and 99.76 and 99.57 and 100.69 and 98.11	101.57 and 100.61 and 99.59 and 102.17 and 101.49 and 97.6	101.41 and 100.27 and 102.04 and 101.19 and 98.33 and 99.11
